From the supplement of paper PMC10627819

Assays:
[1] = system: B. subtilis 168; assay: fitness (endpoint OD595 vs no drug) (fraction); higher = more growth
Outline: (§1)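 Fitness was measured as bacterial growth in 384-well plates inoculated at OD595 0.01 (30 µl, or 55 µl for S. pneumoniae). Media were TSB, LB Lennox or CY, at 37 °C. OD595 was read every 30 min for 14 h and background-subtracted against the first reading. Fitness is OD595 at the transition into stationary phase divided by the robust mean of no-drug control wells, capped at 1.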

[2] = system: S. aureus DSM 20231; assay: as above
Outline: as §1

[3] = system: S. aureus Newman; assay: as above
Outline: as §1

[4] = system: B. subtilis 168; assay: Bliss interaction score (quartile over a dose matrix) (fitness difference); higher = more antagonism (negative = synergy)
Outline: (§2)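 The Bliss score is observed minus expected fitness under the product model, reported as quartiles over technical, biological and donor/recipient replicates. Fitness is the OD595 at entry into stationary phase divided by the plate's robust no-drug mean and capped at 1. Single-drug fitness was inferred from combination data.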

[5] = system: S. aureus DSM 20231; assay: as above
Outline: as §2

[6] = system: S. aureus Newman; assay: as above
Outline: as §2

[7] = system: S. pneumoniae D39V; assay: as above
Outline: as §2
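Throughout, for Bliss interaction score (quartile over a dose matrix): first quartile when negative (synergy) and third quartile when positive (antagonism).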

CC[C@H]1OC(=O)[C@H](C)[C@@H](O[C@H]2C[C@@](C)(OC)[C@@H](O)[C@H](C)O2)[C@H](C)[C@@H](O[C@@H]2O[C@H](C)C[C@H](N(C)C)[C@H]2O)[C@](C)(O)C[C@@H](C)CN(C)[C@H](C)[C@@H](O)[C@]1(C)O [Azithromycin] + CO/N=C(\C(=O)N[C@@H]1C(=O)N2C(C(=O)O)=C(COC(C)=O)CS[C@H]12)c1csc(N)n1 [Cefotaxime]
fitness
Details | first compound 0.125 µg/mL | first compound 0.25 µg/mL | first compound 0.5 µg/mL | first compound 1 µg/mL
[1], partner 0.0625 µg/mL | – | 0.654 | 0.631 | –
[1], partner 0.125 µg/mL | – | 0.456 | 0.456 | 0.21
[1], partner 0.25 µg/mL | – | 0.349 | 0.358 | 0.177
[1], partner 0.5 µg/mL | – | 0.21 | 0.19 | 0.0636
[1], partner 1 µg/mL | – | 0.141 | 0.103 | 0.0233
[1], partner 2 µg/mL | – | 0.111 | 0.0792 | 0.037
[2], partner 0.078 µg/mL | 0.744 | 0.768 | 0.554 | –
[2], partner 0.156 µg/mL | 0.672 | 0.762 | 0.511 | –
[2], partner 0.312 µg/mL | 0.6 | 0.668 | 0.487 | –
[3], partner 0.078 µg/mL | 0.722 | 0.754 | 0.549 | –
[3], partner 0.156 µg/mL | 0.587 | 0.588 | – | –
[3], partner 0.625 µg/mL | – | – | 0.0779 | –
[3], partner 1.25 µg/mL | 0.157 | 0.0373 | 0.0342 | –
[3], partner 2.5 µg/mL | 0.0341 | 0.0356 | 0.0427 | –

fitness, one replicate
Details | first compound 0.125 µg/mL | first compound 0.25 µg/mL | first compound 0.5 µg/mL | first compound 1 µg/mL | first compound 2 µg/mL
[1], partner 0.00775 µg/mL | – | – | 0.831 | 0.567 | 0.0141
[1], partner 0.0155 µg/mL | – | – | 0.714 | 0.324 | 0.0276
[1], partner 0.031 µg/mL | – | – | 0.516 | 0.153 | 0.0097
[2], partner 0.039 µg/mL | 0.725 | 0.724 | 0.589 | – | –
[3], partner 0.039 µg/mL | 0.792 | 0.896 | 0.786 | – | –
[3], partner 0.312 µg/mL | 0.269 | 0.241 | 0.0227 | – | –

Details | Bliss interaction score
[4] | -0.053
[5] | 0.0492
[6] | -0.0321
[7] | 0.0552

CC[C@H]1OC(=O)[C@H](C)[C@@H](O[C@H]2C[C@@](C)(OC)[C@@H](O)[C@H](C)O2)[C@H](C)[C@@H](O[C@@H]2O[C@H](C)C[C@H](N(C)C)[C@H]2O)[C@](C)(O)C[C@@H](C)CN(C)[C@H](C)[C@@H](O)[C@]1(C)O [Azithromycin] + COc1c(N2C[C@@H]3CCCN[C@@H]3C2)c(F)cc2c(=O)c(C(=O)O)cn(C3CC3)c12 [Moxifloxacin]
fitness
Details | first compound 0.125 µg/mL | first compound 0.25 µg/mL | first compound 0.5 µg/mL | first compound 1 µg/mL | first compound 2 µg/mL
[1], partner 0.0312 µg/mL | – | – | 0.0678 | 0.0582 | 0.0414
[1], partner 0.0625 µg/mL | – | 0.0511 | 0.0366 | 0.0237 | 0.0289
[1], partner 0.125 µg/mL | – | 0.0301 | 0.0372 | 0.0336 | 0.02
[1], partner 2 µg/mL | – | 0.027 | 0.0186 | 0.0208 | –
[1], partner 4 µg/mL | – | 0.0147 | 0.0272 | 0.0194 | –
[1], partner 8 µg/mL | – | 0.0347 | 0.042 | 0.0214 | –
[2], partner 0.0075 µg/mL | 0.727 | 0.747 | – | – | –
[2], partner 0.015 µg/mL | 0.687 | 0.772 | 0.592 | – | –
[2], partner 0.03 µg/mL | 0.656 | 0.737 | 0.556 | – | –
[3], partner 0.0075 µg/mL | 0.717 | 0.723 | – | – | –
[3], partner 0.015 µg/mL | 0.666 | – | 0.415 | – | –
[3], partner 0.03 µg/mL | – | – | 0.307 | – | –

fitness, [2], one replicate
Details | first compound 0.125 µg/mL | first compound 0.25 µg/mL | first compound 0.5 µg/mL
partner 0.06 µg/mL | 0.633 | 0.623 | 0.587
partner 0.12 µg/mL | 0.528 | 0.559 | 0.452

Details | Bliss interaction score
[4] | 0.0244
[5] | 0.0773
[6] | 0.118
[7] | 0.0652
